In patent US20260274818A1, “HETEROCYCLOALKYL BETA-HYDROXY ALKYL AMINES FOR USE IN THE TREATMENT OF HYPERGLYCAEMIA AND DISORDERS CHARACTERISED BY HYPERGLYCAEMIA” (ATROGI AB, priority 2023, published 2026):
Where a name gives a salt, the structure may show the parent alone.

Assays:
Intracellular cAMP = experiment: Measurement of intracellular cAMP levels in differentiated L6 cells (alpha screen cAMP kit); assay type: cell-based; details: compound at 10 μM for 15 min vs isoproterenol at 10 μM
Protocol: (§1) L6-myoblasts were grown in Dulbecco's Modified Eagle's Medium (DMEM) containing 1 g/L glucose supplemented with 10% fetal bovine serum, 2 mM L-Glutamine, 50 U/mL penicillin, […] streptomycin and 10 mM HEPES. Cells were plated at 1×10^5 cells per mL in 24-well plates. After reaching 90% confluence the cells were grown in medium containing 2% FBS for 7 days where upon cells differentiated into myotubes.
Differentiated cells were serum-starved overnight and stimulated with an agonist, final concentration 1×10^−5 M, for 15 min in stimulation buffer (HBSS supplemented with 1% BSA, 5 mM HEPES and 1 mM IBMX, pH 7.4). The medium was aspirated and 100 μL of 95% EtOH was added to each well of the 24-well plate and cells were kept at −20° C. overnight. The EtOH was allowed to evaporate and 500 μL of lysis buffer (1% BSA, 5 mM HEPES and 0.3% Tween-20, pH 7.4) was added to each well. The plate was kept at −80° C. for 30 min and then at −20° C. until the day of detection when the samples were thawed. Intracellular cAMP levels were detected using an alpha screen cAMP kit (6760635D from Perkin Elmer). The activity for each compound is compared to that of isoproterenol.

L6-myotubes = experiment: Glucose uptake (3H-2-deoxyglucose) in differentiated L6-myotubes; assay type: cell-based; details: compound at 10 μM vs isoproterenol at 10 μM
Protocol: as §1
Differentiated L6-myotubes were serum-starved overnight in medium containing 0.5% fatty-acid free BSA and stimulated with an agonist, with a final concentration of 1×10^−5 M. After 1 h 40 min the cells were washed with warm glucose free medium or PBS twice and another portion of agonist was added to the glucose free medium. After 20 min the cells were exposed to 50 nM ^3H-2-deoxyglucose for another 10 min before washed in ice cold glucose free medium or PBS three times and lysed in 400 μL/well 0.2 M NaOH for 1 h at 60° C. The cell lysate was mixed with 4 mL scintillation buffer (Emulsifier Safe, Perkin Elmer) and the radioactivity was detected in a β-counter (Tri-Carb 4810TR, Perkin Elmer). The activity for each compound is compared to that of isoproterenol.

Structure (SMILES)	Biological example 2: intracellular cAMP levels, activity compared to that of isoproterenol (Intracellular cAMP)	Biological example 1: glucose uptake, activity compared to that of isoproterenol (L6-myotubes)
CS(=O)(=O)N1CCC(C[C@@H]2CC[C@H]([C@@H](O)c3cccc(F)c3)N2)CC1.Cl [Example 8, (S)-(3-Fluorophenyl)((2R,5S)-5-((1-(methylsulfonyl)piperidin-4-yl)-methyl)pyrrolidin-2-yl)methanol hydrochloride]	− (if it less than 25% it is denoted with −)	++ (if it is between 75 and 50% it is denoted with ++)
CS(=O)(=O)N1CCC[C@@H](C[C@@H]2CC[C@H]([C@@H](O)c3cccc(F)c3)N2)C1.Cl [Example 13, (S)-(3-Fluorophenyl)((2R,5S)-5-(((S)-1-(methylsulfonyl)piperidin-3-yl)methyl)pyrrolidin-2-yl)methanol hydrochloride]	− (if it less than 25% it is denoted with −)	++ (if it is between 75 and 50% it is denoted with ++)
O[C@@H](c1cccc(F)c1)[C@H]1CC[C@@H](CC2CCNCC2)N1 [Example 2, (S)-(3-Fluorophenyl)((2R,5S)-5-(piperidin-4-ylmethyl)pyrrolidin-2-yl)-methanol dihydrochloride]	− (if it less than 25% it is denoted with −)	+ (if it is between 50 and 25% it is denoted with +)
OC(c1cccc(F)c1)[C@H]1CC[C@@H](CC2CCCNC2)N1 (stereo in doubt) [Example 3, (S)-(3-Fluorophenyl)((2R,5S)-5-(((R)-piperidin-3-yl)methyl)pyrrolidin-2-yl)methanol dihydrochloride]	− (if it less than 25% it is denoted with −)	+ (if it is between 50 and 25% it is denoted with +)
O[C@H](c1cccc(F)c1)[C@H]1CC[C@@H](C[C@H]2CCCNC2)N1 [Example 5, (R)-(3-Fluorophenyl)((2R,5S)-5-(((R)-piperidin-3-yl)methyl)pyrrolidin-2-yl)methanol dihydrochloride]	− (if it less than 25% it is denoted with −)	++ (if it is between 75 and 50% it is denoted with ++)
CS(=O)(=O)N1CCC[C@H](C[C@@H]2CC[C@H]([C@H](O)c3cccc(F)c3)N2)C1.Cl [Example 12, (R)-(3-Fluorophenyl)((2R,5S)-5-(((R)-1-(methylsulfonyl)piperidin-3-yl)methyl)pyrrolidin-2-yl)methanol hydrochloride]	− (if it less than 25% it is denoted with −)	+++ (more than 75% of that of isoproterenol at 10 μM, the activity is denoted with +++)
CS(=O)(=O)N1CCC[C@H](C[C@@H]2CC[C@H]([C@@H](O)c3cccc(F)c3)N2)C1.Cl [Example 11, (S)-(3-Fluorophenyl)((2R,5S)-5-(((R)-1-(methylsulfonyl)piperidin-3-yl)methyl)pyrrolidin-2-yl)methanol hydrochloride]	− (if it less than 25% it is denoted with −)	+ (if it is between 50 and 25% it is denoted with +)
Cl.O[C@@H](c1cccc(F)c1)[C@H]1CC[C@@H](CC2CCOCC2)N1 [Example 15, (S)-(3-Fluorophenyl)((2R,5S)-5-((tetrahydro-2H-pyran-4-yl)methyl)-pyrrolidin-2-yl)methanol hydrochloride]	− (if it less than 25% it is denoted with −)	++ (if it is between 75 and 50% it is denoted with ++)
O[C@@H](c1cccc(F)c1)[C@H]1CC[C@@H](C[C@@H]2CCCNC2)N1 [Example 4, (S)-(3-Fluorophenyl)((2R,5S)-5-(((S)-piperidin-3-yl)methyl)pyrrolidin-2-yl)methanol dihydrochloride]	− (if it less than 25% it is denoted with −)	++ (if it is between 75 and 50% it is denoted with ++)
CC(=O)N1CCC(C[C@@H]2CC[C@H]([C@@H](O)c3cccc(F)c3)N2)CC1.Cl [Example 10, 1-(4-(((2S,5R)-5-((S)-(3-Fluorophenyl)(hydroxy)methyl)pyrrolidin-2-yl)methyl)piperidin-1-yl)ethan-1-one hydrochloride]	− (if it less than 25% it is denoted with −)	− (if it less than 25% it is denoted with −)
Cl.O[C@H](c1cccc(F)c1)[C@H]1CC[C@@H](CC2CCOCC2)N1 [Example 16, (R)-(3-Fluorophenyl)((2R,5S)-5-((tetrahydro-2H-pyran-4-yl)methyl)-pyrrolidin-2-yl)methanol hydrochloride]	+ (if it is between 50 and 25% it is denoted with +)	+++ (more than 75% of that of isoproterenol at 10 μM, the activity is denoted with +++)
OC(c1cccc(F)c1)[C@H]1CC[C@@H](CC2CCCNC2)N1 (stereo in doubt) [Example 6, (R)-(3-Fluorophenyl)((2R,5S)-5-(((S)-piperidin-3-yl)methyl)pyrrolidin-2-yl)methanol dihydrochloride]	− (if it less than 25% it is denoted with −)	+++ (more than 75% of that of isoproterenol at 10 μM, the activity is denoted with +++)
CS(=O)(=O)N1CCC[C@@H](C[C@@H]2CC[C@H]([C@H](O)c3cccc(F)c3)N2)C1.Cl [Example 14, (R)-(3-Fluorophenyl)((2R,5S)-5-(((S)-1-(methylsulfonyl)piperidin-3-yl)methyl)pyrrolidin-2-yl)methanol hydrochloride]	− (if it less than 25% it is denoted with −)	+++ (more than 75% of that of isoproterenol at 10 μM, the activity is denoted with +++)
CC(=O)N1CCC(C[C@@H]2CC[C@H]([C@H](O)c3cccc(F)c3)N2)CC1.Cl [Example 9, 1-(4-(((2S,5R)-5-((R)-(3-Fluorophenyl)(hydroxy)methyl)pyrrolidin-2-yl)methyl)piperidin-1-yl)ethan-1-one hydrochloride]	− (if it less than 25% it is denoted with −)	+++ (more than 75% of that of isoproterenol at 10 μM, the activity is denoted with +++)
CS(=O)(=O)N1CCC(C[C@@H]2CC[C@H]([C@H](O)c3cccc(F)c3)N2)CC1.Cl [Example 7, (R)-(3-Fluorophenyl)((2R,5S)-5-((1-(methylsulfonyl)piperidin-4-yl)-methyl)pyrrolidin-2-yl)methanol hydrochloride]	− (if it less than 25% it is denoted with −)	+++ (more than 75% of that of isoproterenol at 10 μM, the activity is denoted with +++)
O[C@H](c1cccc(F)c1)[C@H]1CC[C@@H](CC2CCNCC2)N1 [Example 1, (R)-(3-Fluorophenyl)((2R,5S)-5-(piperidin-4-ylmethyl)pyrrolidin-2-yl)-methanol dihydrochloride]	− (if it less than 25% it is denoted with −)	++ (if it is between 75 and 50% it is denoted with ++)
